Assay results from US4452812A, “Organic complex of platinum, its preparation and its use for treating malignant tumors” (Sanofi, priority 1980, dated 1984).
pIC50: −log10 of the molar value. Entries after “also recorded” stand apart in the source; their conditions may differ.

Columns and labels:
sarcoma S 180 = experiment: Anti-tumour activity, sarcoma S 180 ascite, i.p. graft, i.p. treatment; assay type: in vivo, mouse (Swiss female); conditions: for ILS: single i.p. on D1
Procedure: Swiss female mice (Evic-Ceba, Bordeaux) of 20 to 22 g
10^6 cells intraperitoneally grafted on D0
intraperitoneal treatment 24 hours later, D1, in one single injection.
(§1) The solutions of these compounds were prepared extemporaneously.

leukemia L 1210 [1] = experiment: Anti-tumour activity, leukemia L 1210, s.c. graft, i.p. treatment; assay type: in vivo, mouse; conditions: s.c. graft 10^6 cells
Procedure: (§2) I. […] L 1210: Ascite and Solid
(c) s.c. graft--i.p. treatment
10^6 cells were grafted under the skin behind the head on D0 and intraperitoneal treatment was carried out in one single injection either on D1 or on D4.
as §1

leukemia L 1210 [2] = experiment: Anti-tumour activity, leukemia L 1210, i.p. graft, i.v. treatment; assay type: in vivo, mouse; conditions: for ILS: i.p. graft 10^5 cells
Procedure: as §2
(b) i.p. graft--i.v. treatment
as §1

L 1210 cells [3] = experiment: Cytotoxicity on L 1210 cells in culture; assay type: cell-based; conditions: read-out: ID50 (reduces by 50% the rate of growth of the cells); usually 24 to 48 hours contact
rat = experiment: Acute toxicity in the rat; assay type: in vivo, rat (Sprague-Dawley)
Procedure: Acute toxicity, one single injection of the compound, was measured using Swiss female mice (Evic-Ceba, Bordeaux) of 21 to 23 g. and Sprague-Dawley rats. Ten animals were treated for each dose studied.

[4] = tested on: renal and hepatic parenchyma; experiment: Renal and hepatic toxicity; assay type: in vivo, mouse (Swiss female)
Procedure: It was thus of interest to compare the effects of the novel compound of the invention with those of the already known compounds listed above on the kidney and the liver, i.e. the organs in which the greatest amount of platinum accumulates.
Swiss female mice (Evic-Ceba, Bordeaux) of 20 to 22 g were treated by intraperitoneal route D0 and then sacrificed on D1, D4 and D10.
Slices 5 microns thick were coloured with hemalun eosine stain.

L 1210 cells [5] = experiment: Cellular penetration of platinum in vivo into L 1210 cells; design: species or system mouse (DBA/2); conditions: PHIC 150 mg/kg, two hours after treatment on D3
Procedure: DBA/2 mice received 10^6 L 1210 cells on D0 and were treated three days later with an amount of platinum compound equal to the LD0 in the healthy mouse. Two hours after treatment on D3, the animals were sacrificed. About 20.10^6 cells were extracted from the peritoneum and washed several times so as to eliminate the extra-cellular platinum and also any intracellular platinum which was not bound in a covalent manner with the cellular organelles. Platinum was monitored by atomic absorption for whole cells and also on the DNA which was purified by phenol extraction. […] This corresponds to 180.10^-16 g of platinum per leukemic cell. Under these conditions, one fixed platinum atom per 3000 nucleotides was found, i.e. a total of 1% of the amount which penetrated the cells was complexed to DNA. […] 10^-16 of platinum per cell.

DNA = experiment: Platinum fixed on DNA of L 1210 cells in vivo; design: species or system mouse (DBA/2); conditions: PDD 9 mg/kg, PHIC 150 mg/kg; two hours after treatment on D3
Procedure: DBA/2 mice received 10^6 L 1210 cells on D0 and were treated three days later with an amount of platinum compound equal to the LD0 in the healthy mouse. Two hours after treatment on D3, the animals were sacrificed. […] Platinum was monitored by atomic absorption for whole cells and also on the DNA which was purified by phenol extraction. […] Under these conditions, one fixed platinum atom per 3000 nucleotides was found, i.e. a total of 1% of the amount which penetrated the cells was complexed to DNA. […] 10^-16 of platinum per cell.

[6] = tested on: baboon (ear, Corti organ); experiment: Ototoxicity test in the baboon (auditory potentials, echocochleography); assay type: in vivo; conditions: baboon No 3, 200 mg/kg, D31
Procedure: An ototoxicity test was carried out on baboon No. 3 (200 mg/kg) on D31. This test comprised the following: (a) Registering the auditory potentials when the ear was submitted to 1500 stimuli at 90, 80, 70, 60, 50, 40, 30, 20 and 10 decibels. The results gave the latency times for conduction from the ear to the brain. (b) Performing the same kind of test by echocochleography. This analysis was much more accurate than the previous one because it was only carried out in the Corti organ (cochlea). Frequencies of 8000, 4000, 2000 and 1000 Hertz at 90, 70, 50, 30, 20 and 10 decibels were used. Measurements were made using a Racia Medelec Empled MK4 1026. […] The properties of PHIC compared to those of PDD can be summarized as follows: […]

abdominal viscera = experiment: Peritonitis (adhesion and hardening of abdominal viscera); assay type: in vivo, mouse
Procedure: as §1
As discussed above this problem seems to be linked to the presence of the 1,2-diaminocyclohexane ligand.

[7] = Stability in sodium chloride solution; assay type: physicochemical; conditions: 9% sodium chloride
Procedure: This compound has an exceptionally high degree of solubility.
as §1

Question: For `NC1CCCCC1N.O=C([O-])CC(C(=O)[O-])C([O-])C(=O)[O-].[H+].[H+].[Pt+2]` (stereo not drawn) [PHIC, cis-isocitrato (1,2-diaminocyclohexane) platinum (II)], which ILS (sarcoma S 180; 10 mg/kg) is on record?
Answer: The ILS was 29%.

Question: What about the ILS (sarcoma S 180; 25 mg/kg) of the same compound?
Answer: The ILS was 46%.

Question: What about the ILS (sarcoma S 180; 50 mg/kg) of the same compound?
Answer: The ILS was 112%.

Question: And the ILS (sarcoma S 180; 100 mg/kg)?
Answer: Its ILS is 171%.

Question: What about the Survivals (sarcoma S 180; S 180, 10 mg/kg i.p. on D1, day 60) of the same compound?
Answer: The Survivals was 0%.

Question: What about the Survivals (sarcoma S 180; S 180, 25 mg/kg i.p. on D1, day 60) of the same compound?
Answer: Its Survivals is 0%.

Question: And the Survivals (sarcoma S 180; S 180, 50 mg/kg i.p. on D1, day 60)?
Answer: The Survivals was 20%.

Question: What about the Survivals (sarcoma S 180; S 180, 100 mg/kg i.p. on D1, day 60) of the same compound?
Answer: Its Survivals is 40%.

Question: And the “anti-tumour activity (in words)” value (sarcoma S 180; sarcoma S 180)?
Answer: Its value is “Very marked anti-tumor activity; also recorded: exerts the anti-tumour activity”.

Question: What about the ILS (leukemia L 1210 [1]; 62.5 mg/kg i.p. on D1) of the same compound?
Answer: Its ILS is 26%.

Question: What about the ILS (leukemia L 1210 [1]; 62.5 mg/kg i.p. on D4) of the same compound?
Answer: Its ILS is 17%.

Question: And the ILS (leukemia L 1210 [1]; 125 mg/kg i.p. on D4)?
Answer: Its ILS is 50%.

Question: What about the “anti-tumour activity (in words)” value (leukemia L 1210 [2]; graft intraperitoneal, treatment intravenous) of the same compound?
Answer: Its value is “active”.

Question: What about the ILS (leukemia L 1210 [2]; 50 mg/kg i.v. on D1) of the same compound?
Answer: The ILS was 25%.

Question: What about the ILS (leukemia L 1210 [2]; 125 mg/kg i.v. on D1) of the same compound?
Answer: Its ILS is 41%.

Question: And the pIC50 (L 1210 cells [3])?
Answer: The pIC50 was 6.38.

Question: And the LD10 (rat; I.P.)?
Answer: Its LD10 is 61 mg/kg.

Question: What about the LD50 (rat; I.P.) of the same compound?
Answer: Its LD50 is 143 mg/kg.

Question: And the LD90 (rat; I.P.)?
Answer: Its LD90 is 278 mg/kg.

Question: What about the LD10 (rat; I.V.) of the same compound?
Answer: Its LD10 is 111 mg/kg.

Question: And the LD50 (rat; I.V.)?
Answer: Its LD50 is 173 mg/kg.

Question: And the LD90 (rat; I.V.)?
Answer: The LD90 was 244 mg/kg.

Question: And the LD50 (rat; P.O.)?
Answer: The LD50 was > 1 000 mg/Kg.

Question: What about the nephrotoxicity ([4]; LD0 level, mice) of the same compound?
Answer: Its nephrotoxicity is “No”.

Question: What about the renal lesion ([4]; at a dose 20 times greater than that of PDD) of the same compound?
Answer: Its renal lesion is “does not cause any renal lesion”.

Question: What about the “renal and hepatic alterations” value ([4]; i.p. at ~LD0 (mg/kg): PDD 8, PAC 100, PHM 50, PHD 4, PHS 5, PHC 120, PHIC 150, D1, D4, D10) of the same compound?
Answer: The value was “did not provoke any significant alterations”.

Question: What about the “Amount of penetrating platinum per cell” value (L 1210 cells [5]; PDD 9 mg/kg) of the same compound?
Answer: Its value is 7e-14 g.

Question: What about the “platinum per cell” value (L 1210 cells [5]) of the same compound?
Answer: The value was 700. 10^-16.

Question: What about the “Number of fixed platinum atoms per nucleotide on DNA” value (DNA) of the same compound?
Answer: Its value is 1/3500.

Question: What about the “amount that penetrated the cells which was complexed to DNA” value (DNA) of the same compound?
Answer: Its value is 1%.

Question: And the “nucleotides per one fixed platinum atom” value (DNA)?
Answer: The value was 3500 nucleotides.

Question: And the ototoxic effect [6]?
Answer: Its ototoxic effect is “No ototoxic effect was detected”.

Question: And the peritonitis (abdominal viscera; healthy mice, i.p. injection)?
Answer: The peritonitis was “also observed in healthy mice”.

Question: What about the “occurrence of peritonitis in relation to the 1,2-diaminocyclohexane ligand” value (abdominal viscera; i.p.) of the same compound?
Answer: The value was “seems to be correlated with the presence of 1,2-diaminocyclohexane”.

Question: What about the “peritonitis / long-term toxic effect” value (abdominal viscera; i.v. administration) of the same compound?
Answer: The value was “never encountered; also recorded: not observed”.

Question: And the peritonitis (abdominal viscera; tumour-bearing mice, i.p. treatment)?
Answer: Its peritonitis is “most of the mice reaching 30 days of survival treatment with PHM and PHIC developed peritonitis; also recorded: causes peritonitis”.

Question: What about the “change to chlorinated derivative in sodium chloride solution” value [7] of the same compound?
Answer: Its value is “changing in 24 hours to a yellow chlorinated derivative which precipitates”.
